In PMC10599993, “The PTPN2/PTPN1 inhibitor ABBV-CLS-484 unleashes potent anti-tumour immunity” (Nature, 2023):

How the values were obtained:
Experiment in all cases: biochemical
Parameters in all cases: Kinase selectivity panel, IC50 of AC484 (Supplementary Table 1)
ACVR1 = ACVR1 (Homo sapiens, UniProt Q04771)
Aurora 1 = target: T1, Aurora 1 (Homo sapiens, UniProt Q96GD4)
T1 construct: gene AURKB

Aurora 2 = target: T2, Aurora 2 (Homo sapiens, UniProt O14965)
T2 construct: gene AURKA

CDK8/Cyclin C = CDK8/Cyclin C (Homo sapiens, UniProt P49336)
Sequence of CDK8/Cyclin C (P49336 whole entry): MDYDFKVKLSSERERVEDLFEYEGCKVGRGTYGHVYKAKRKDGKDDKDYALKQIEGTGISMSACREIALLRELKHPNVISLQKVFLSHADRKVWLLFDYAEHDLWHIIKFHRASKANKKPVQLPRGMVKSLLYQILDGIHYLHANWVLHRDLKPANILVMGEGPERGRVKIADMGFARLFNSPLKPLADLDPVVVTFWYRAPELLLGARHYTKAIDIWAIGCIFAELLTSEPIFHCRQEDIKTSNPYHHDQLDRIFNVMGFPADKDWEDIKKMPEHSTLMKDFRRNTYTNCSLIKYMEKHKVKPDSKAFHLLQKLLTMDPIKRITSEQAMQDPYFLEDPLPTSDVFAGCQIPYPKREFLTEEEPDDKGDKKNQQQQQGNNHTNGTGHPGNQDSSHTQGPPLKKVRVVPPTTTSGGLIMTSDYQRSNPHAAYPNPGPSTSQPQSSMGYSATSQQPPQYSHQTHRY
Sequence of CDK8/Cyclin C (P24863 whole entry partner): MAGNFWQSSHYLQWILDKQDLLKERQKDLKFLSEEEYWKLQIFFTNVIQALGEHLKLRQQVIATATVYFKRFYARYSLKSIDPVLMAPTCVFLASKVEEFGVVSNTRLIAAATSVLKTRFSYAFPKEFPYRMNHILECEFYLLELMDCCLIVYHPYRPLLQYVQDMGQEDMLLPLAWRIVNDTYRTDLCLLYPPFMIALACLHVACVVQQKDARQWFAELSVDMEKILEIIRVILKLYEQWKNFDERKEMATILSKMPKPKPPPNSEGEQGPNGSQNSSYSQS

CSF1R = CSF1R (Homo sapiens, UniProt P07333)
CSK = CSK (Homo sapiens, UniProt P41240)
Ck1alpha1 = target: T3, Ck1alpha1 (Homo sapiens, UniProt P48729)
T3 construct: gene CSNK1A1

DDR1 = DDR1 (Homo sapiens, UniProt Q08345)
ErbB2 = ErbB2 (Homo sapiens, UniProt P04626)
Erk2 = target: T4, Erk2 (Homo sapiens, UniProt P28482)
T4 construct: gene MAPK1

FAK = target: T5, FAK (Homo sapiens, UniProt Q05397)
T5 construct: gene PTK2
T5 sequence (Q05397 whole entry): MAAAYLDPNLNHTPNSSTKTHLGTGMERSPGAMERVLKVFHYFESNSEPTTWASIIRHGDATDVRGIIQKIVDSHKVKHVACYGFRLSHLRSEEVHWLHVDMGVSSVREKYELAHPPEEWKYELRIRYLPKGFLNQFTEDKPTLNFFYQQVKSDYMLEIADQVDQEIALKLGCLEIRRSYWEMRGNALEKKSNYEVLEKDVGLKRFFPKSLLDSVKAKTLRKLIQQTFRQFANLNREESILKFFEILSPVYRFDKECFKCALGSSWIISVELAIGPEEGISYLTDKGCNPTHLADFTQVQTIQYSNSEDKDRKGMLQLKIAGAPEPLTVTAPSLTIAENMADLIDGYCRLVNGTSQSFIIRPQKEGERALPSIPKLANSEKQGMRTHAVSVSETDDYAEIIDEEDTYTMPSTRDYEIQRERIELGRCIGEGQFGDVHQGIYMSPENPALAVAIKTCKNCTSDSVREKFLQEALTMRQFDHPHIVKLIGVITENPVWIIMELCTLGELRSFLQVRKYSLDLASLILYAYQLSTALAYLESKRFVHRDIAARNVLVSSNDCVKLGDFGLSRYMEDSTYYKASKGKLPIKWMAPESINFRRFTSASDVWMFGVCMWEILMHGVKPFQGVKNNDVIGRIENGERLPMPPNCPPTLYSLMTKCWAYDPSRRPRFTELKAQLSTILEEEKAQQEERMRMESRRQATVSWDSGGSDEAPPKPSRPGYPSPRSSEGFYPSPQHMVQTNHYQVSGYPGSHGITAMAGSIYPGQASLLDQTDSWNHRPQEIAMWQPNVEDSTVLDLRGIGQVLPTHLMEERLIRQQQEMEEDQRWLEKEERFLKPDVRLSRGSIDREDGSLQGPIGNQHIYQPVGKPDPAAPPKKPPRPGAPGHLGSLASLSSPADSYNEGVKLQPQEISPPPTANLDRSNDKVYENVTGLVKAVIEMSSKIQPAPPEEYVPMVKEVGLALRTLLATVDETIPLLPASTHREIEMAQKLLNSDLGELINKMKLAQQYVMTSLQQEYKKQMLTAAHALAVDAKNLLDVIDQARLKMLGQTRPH

IKKE = target: T6, IKKE (Homo sapiens, UniProt Q14164)
T6 construct: gene IKBKE

JAK2 = JAK2 (Homo sapiens, UniProt O60674)
MAP3K10 = MAP3K10 (Homo sapiens, UniProt Q02779)
MAP4K1 = MAP4K1 (Homo sapiens, UniProt Q92918)
MAP4K2 = MAP4K2 (Homo sapiens, UniProt Q12851)
MAP4K4 = MAP4K4 (Homo sapiens, UniProt O95819)
MEK1 = target: T7, MEK1 (Homo sapiens, UniProt Q02750)
T7 construct: gene MAP2K1

MERTK = MERTK (Homo sapiens, UniProt Q12866)
MINK1 = MINK1 (Homo sapiens, UniProt Q8N4C8)
PKG1A = target: T8, PKG1A (Homo sapiens, UniProt Q13976)
T8 construct: gene PRKG1; isoform 1 alpha

Rock1 = Rock1 (Homo sapiens, UniProt Q13464)
Sequence of Rock1 (Q13464 whole entry): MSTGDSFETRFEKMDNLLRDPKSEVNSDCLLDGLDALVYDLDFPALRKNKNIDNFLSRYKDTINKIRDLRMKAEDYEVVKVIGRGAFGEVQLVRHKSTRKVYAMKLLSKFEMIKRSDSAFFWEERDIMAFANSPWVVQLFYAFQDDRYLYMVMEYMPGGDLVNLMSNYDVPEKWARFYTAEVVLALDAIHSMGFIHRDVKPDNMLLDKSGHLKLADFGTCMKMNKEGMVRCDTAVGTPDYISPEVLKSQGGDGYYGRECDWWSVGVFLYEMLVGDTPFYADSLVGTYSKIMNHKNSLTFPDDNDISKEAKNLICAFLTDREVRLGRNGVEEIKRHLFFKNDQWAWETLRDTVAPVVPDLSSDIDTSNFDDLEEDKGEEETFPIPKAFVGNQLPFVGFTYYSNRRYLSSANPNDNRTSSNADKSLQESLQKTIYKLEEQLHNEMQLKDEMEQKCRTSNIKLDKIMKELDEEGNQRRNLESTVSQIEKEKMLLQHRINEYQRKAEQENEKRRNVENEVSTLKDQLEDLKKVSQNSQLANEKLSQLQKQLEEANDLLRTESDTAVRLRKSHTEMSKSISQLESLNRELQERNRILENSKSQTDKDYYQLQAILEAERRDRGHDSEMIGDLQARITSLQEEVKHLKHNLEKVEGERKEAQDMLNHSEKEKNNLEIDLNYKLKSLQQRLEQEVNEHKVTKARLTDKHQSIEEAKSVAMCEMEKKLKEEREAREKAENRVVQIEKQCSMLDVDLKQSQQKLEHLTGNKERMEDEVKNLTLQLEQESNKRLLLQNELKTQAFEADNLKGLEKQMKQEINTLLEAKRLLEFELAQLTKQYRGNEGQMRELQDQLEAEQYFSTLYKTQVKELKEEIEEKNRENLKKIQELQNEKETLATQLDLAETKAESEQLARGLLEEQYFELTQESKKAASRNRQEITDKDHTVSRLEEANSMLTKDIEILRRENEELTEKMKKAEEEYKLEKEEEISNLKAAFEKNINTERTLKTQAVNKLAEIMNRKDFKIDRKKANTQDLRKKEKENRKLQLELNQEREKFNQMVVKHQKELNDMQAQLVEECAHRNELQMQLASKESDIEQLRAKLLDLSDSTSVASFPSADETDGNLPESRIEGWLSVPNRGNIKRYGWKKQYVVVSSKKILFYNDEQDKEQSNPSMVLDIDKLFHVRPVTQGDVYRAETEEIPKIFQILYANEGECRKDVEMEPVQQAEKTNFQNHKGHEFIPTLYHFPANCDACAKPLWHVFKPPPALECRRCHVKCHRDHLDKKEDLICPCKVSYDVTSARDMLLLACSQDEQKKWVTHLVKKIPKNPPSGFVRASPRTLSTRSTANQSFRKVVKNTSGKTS

SGK1 = SGK1 (Homo sapiens, UniProt O00141)
Syk = Syk (Homo sapiens, UniProt P43405)
TAK1-TAB1 = target: T9, TAK1-TAB1 (Homo sapiens, UniProt O43318)
T9 construct: gene MAP3K7
T9 sequence (O43318 whole entry): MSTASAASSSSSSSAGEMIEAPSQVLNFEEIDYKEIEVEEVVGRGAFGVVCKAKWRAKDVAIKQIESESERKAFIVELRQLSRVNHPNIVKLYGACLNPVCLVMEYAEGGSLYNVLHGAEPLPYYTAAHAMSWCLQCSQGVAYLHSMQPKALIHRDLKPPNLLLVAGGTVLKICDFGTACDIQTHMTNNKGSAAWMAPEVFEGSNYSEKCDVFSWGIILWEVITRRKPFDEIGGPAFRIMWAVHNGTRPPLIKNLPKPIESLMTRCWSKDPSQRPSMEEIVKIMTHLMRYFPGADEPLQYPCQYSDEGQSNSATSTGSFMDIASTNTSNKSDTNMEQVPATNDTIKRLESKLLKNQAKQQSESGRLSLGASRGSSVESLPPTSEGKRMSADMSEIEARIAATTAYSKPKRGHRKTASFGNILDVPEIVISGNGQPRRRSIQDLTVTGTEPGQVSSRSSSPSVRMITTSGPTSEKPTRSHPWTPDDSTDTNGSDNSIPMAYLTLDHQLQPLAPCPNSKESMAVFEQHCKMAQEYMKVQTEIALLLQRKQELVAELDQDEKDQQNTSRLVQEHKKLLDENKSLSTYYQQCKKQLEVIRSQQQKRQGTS
T9 sequence (Q15750 whole entry partner): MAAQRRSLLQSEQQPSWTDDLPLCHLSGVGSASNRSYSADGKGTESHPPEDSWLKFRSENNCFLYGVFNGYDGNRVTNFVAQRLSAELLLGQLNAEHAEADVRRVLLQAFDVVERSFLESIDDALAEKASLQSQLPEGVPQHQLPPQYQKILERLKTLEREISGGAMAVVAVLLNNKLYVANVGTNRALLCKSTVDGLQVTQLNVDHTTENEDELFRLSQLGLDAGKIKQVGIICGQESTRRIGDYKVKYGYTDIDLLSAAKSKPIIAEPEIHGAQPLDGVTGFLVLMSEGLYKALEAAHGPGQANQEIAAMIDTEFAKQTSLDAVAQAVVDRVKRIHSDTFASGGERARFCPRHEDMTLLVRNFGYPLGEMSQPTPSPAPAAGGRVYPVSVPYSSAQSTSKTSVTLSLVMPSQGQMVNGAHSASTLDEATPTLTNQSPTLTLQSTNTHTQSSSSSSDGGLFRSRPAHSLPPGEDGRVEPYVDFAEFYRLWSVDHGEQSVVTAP

TAOK2 = TAOK2 (Homo sapiens, UniProt Q9UL54)
TXK = TXK (Homo sapiens, UniProt P42681)
Zap70 = Zap70 (Homo sapiens, UniProt P43403)

Measured: IC50

Sequence of ACVR1 (Q04771 whole entry): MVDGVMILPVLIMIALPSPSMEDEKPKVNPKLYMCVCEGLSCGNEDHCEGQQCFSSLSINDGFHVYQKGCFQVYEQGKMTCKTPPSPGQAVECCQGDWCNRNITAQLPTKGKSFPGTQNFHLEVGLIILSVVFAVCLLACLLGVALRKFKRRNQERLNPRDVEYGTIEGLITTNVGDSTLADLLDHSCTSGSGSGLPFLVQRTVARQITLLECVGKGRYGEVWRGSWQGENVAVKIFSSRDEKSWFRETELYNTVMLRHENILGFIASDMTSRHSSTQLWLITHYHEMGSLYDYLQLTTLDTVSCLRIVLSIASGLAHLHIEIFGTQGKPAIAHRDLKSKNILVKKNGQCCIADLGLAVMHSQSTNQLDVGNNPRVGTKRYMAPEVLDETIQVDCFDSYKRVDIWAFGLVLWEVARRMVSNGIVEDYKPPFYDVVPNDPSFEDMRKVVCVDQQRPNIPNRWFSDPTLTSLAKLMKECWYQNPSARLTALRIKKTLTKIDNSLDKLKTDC

CC(C)CCN[C@@H]1CCc2cc(O)c(N3CC(=O)NS3(=O)=O)c(F)c2C1 [AC484, ABBV-CLS-484]
> 10 µM: all assays above
